Source: patent publication US20240423208A1, “AGRICULTURAL COMPOSITION AND METHOD FOR CULTIVATING PLANTS USING SAME” (KANEKA CORPORATION, priority 2022, published 2024)

Columns and labels:
[1] = test system: Lettuce (the cultivar: Souther); assay: Experiment 1: lettuce growth, total dry weight after bottom watering; format: in vivo; settings: compositions with 15 mass % GSSG, 10 mass % ALN, 5 mass % ferrous material, 15 mass % seaweed extract; diluted 1000-fold, bottom watering 3 and 4 weeks after seeding
Description: Lettuce (the cultivar: Souther) was raised in a plant incubator. Three weeks after the seeding and four weeks after the seeding, a composition comprising 15 mass % oxidized glutathione (GSSG), 10 mass % allantoin (ALN), 5 mass % ferrous material, or 15 mass % seaweed extract, or a composition comprising a combination of 15 mass % GSSG and any of 10 mass % ALN, 5 mass % ferrous material, or 15 mass % seaweed extract was applied to the lettuce. Each composition was diluted 1000-fold, and each resulting solution was applied by bottom watering.
Four weeks after the seeding, the seedling was transplanted into a pot, grown in a glass greenhouse for two weeks, and then, evaluated (repeated 9 times).
Assuming that the value of the total dry weight of the lettuce to which water alone was applied was 100, the total dry weight of the lettuce to which each composition was applied was expressed.

[2] = test system: lettuce (the cultivar: Lollo Rosso or Red Oak); assay: Experiment 10: visual evaluation of lettuce coloration after leaf spraying; format: in vivo; set-up: key: The same degree of coloration as T1 was rated CC; slightly more coloration than T1 was rated BB; much more coloration than T1 was rated AA; settings: GSSG 0.125%, ALN 0.5%; sprayed on leaves approximately 1 g/head; one week after spraying; compared with T1
Description: Culture soil was put in a 9 cm plastic pot, and seeded with lettuce (the cultivar: Lollo Rosso or Red Oak). After the seeding, the lettuce was grown in an environmentally controlled greenhouse set at 28° C. during the daytime and at 18° C. during the nighttime. Three weeks after the seeding, each test solution shown in Table 5 was sprayed on the leaves at approximately 1 g/head. One week after the spraying, the appearance of the lettuce was visually observed, and the degree of coloration was evaluated. The evaluation was based on a comparison with T1 (the control). The same degree of coloration as T1 was rated CC, slightly more coloration than T1 was rated BB, and much more coloration than T1 was rated AA.

[3] = test system: Lettuce (the cultivar: Souther); assay: Experiment 2: lettuce growth under high-temperature stress, total dry weight; format: in vivo; settings: diluted 1000-fold, bottom watering, 40° C. for two hours
Description: Lettuce (the cultivar: Souther) was raised in a plant incubator. Three weeks after the seeding and four weeks after the seeding, a fertilizer composition comprising 5 mass % GSSG, 10 mass % ALN, or 20 mass % ALN, a fertilizer composition comprising neither GSSG nor ALN, or a fertilizer composition comprising a combination of 5 mass % GSSG and each concentration of ALN was applied. Each fertilizer composition was diluted 1000-fold, and the resulting solution was applied by bottom watering.
Four weeks after the seeding, the seedling was transplanted into a pot, subjected to high-temperature stress at 40° C. for two hours in a plant incubator, and grown for one week. Then, the seedling was transferred into a glass greenhouse, grown for one week, and then, evaluated (repeated 9 times).
Assuming that the value of the total dry weight of the lettuce to which the fertilizer composition comprising neither GSSG nor ALN was applied alone was 100, the total dry weight of the lettuce to which each composition was applied was expressed.

grape VR cell = assay: Experiment 9: cumulative amount of anthocyanin in cultured grape VR cell; format: cell-based; settings: GSSG 0.1%, ALN 0.4%; 10 μL at start and 100 μL on 3rd day; measured on 11th day of culture
Description: A grape VR cell was cultured in an LS agar culture medium, and the cumulative amount of anthocyanin was measured. The solution for each treatment section as shown in Table 4 was delivered into the cell cluster by drops in an amount of 10 μL at the beginning of the culture, and in an amount of 100 μL on the 3rd day of culture. The amount of anthocyanin was measured on the 11th day of culture. The culture was performed at 27° C. under light irradiation.

Q: How did the “total dry weight of the lettuce (water alone = 100)” value [1] turn out when `NC(=O)NC1NC(=O)NC1=O` (stereo not drawn) [ALN, 5-ureidohydantoin] was run?
A: 123

Q: What about the “degree of coloration, Lollo Rosso” value [2] of the same compound?
A: BB

Q: And the “degree of coloration, Red Oak” value [2]?
A: BB

Q: And the “total dry weight of the lettuce (fertilizer composition with neither GSSG nor ALN = 100)” value ([3]; ALN 10%, GSSG 0% or 5%)?
A: 104

Q: What about the “total dry weight of the lettuce (fertilizer composition with neither GSSG nor ALN = 100)” value ([3]; ALN 20%, GSSG 0% or 5%) of the same compound?
A: 115

Q: And the “cumulative amount of anthocyanin” value (grape VR cell)?
A: neither GSSG alone nor ALN alone affected

Q: Which “total dry weight of the lettuce (water alone = 100)” value [1] does the source give for `[Fe+2]` [Ferrous iron] here?
A: 98

Q: How did the “total dry weight of the lettuce (water alone = 100)” value [1] turn out when oxidized glutathione [GSSG] was run?
A: 113

Q: And the “degree of coloration, Lollo Rosso” value [2]?
A: CC

Q: And the “degree of coloration, Red Oak” value [2]?
A: BB

Q: What about the “total dry weight of the lettuce (fertilizer composition with neither GSSG nor ALN = 100)” value ([3]; ALN 0%, GSSG 5 mass %) of the same compound?
A: 108

Q: And the “cumulative amount of anthocyanin” value (grape VR cell)?
A: neither GSSG alone nor ALN alone affected
